# B1: FGF18: FGF activator, member of the FGF8 subfamily (protein, UniProt O76093 28-207, looked up)
# Fibroblast growth factor 18: EENVDFRIHVENQTRARDDVSRKQLRLYQLYSRTSGKHIQVLGRRISARGEDGDKYAQLLVETDTFGSQVRIKGKETEFYLCMNRKGKLVGKPDGTSKECVFIEKVLENNYTALMSAKYSGWYVGFTKKGRPRKGPKTRENQQDVHFMKRYPKGQPELQKPFKYTTVTKRSRRIRPTHPA
# Assays:
# rodent GSK3β homologs = details: cited from earlier work
# [1] = test system: differentiated mDA cells from hPSC and hiPSC; experiment: mRNA expression of marker genes in differentiated mDA cells (Wnt-boost protocol with or without FGF18 and/or IWP2); type: cell-based, human
# Method: hPSC and hiPSC were used for the differentiation methods. First, the effect of Wnt signaling on ALDH1A1 induction in mDA cells differentiated with different protocols was evaluated. The mRNA expression levels of FOXA2, LMX1A, EN1, WNT1, OTX2, ALDH1A1 and PAX6 were evaluated in day 16-differentiated mDA cells produced using Wnt-boost, Wnt-boost+IWP2 (day 10-day 16), and Wnt-boost+IWP2 (day 12-day 16) protocols, with or without FGF18 (day 12-16) (FIG. 1).
# SMA mRNA expression level was not detectable. The Wnt-boost protocol in combination with FGF18 and IWP2 generated optimal A/P and DN patterned precursors, where more than 90% cells are FOXA2/EN1 double positive (FIG. 2A). […] Furthermore, The mRNA expression levels of FOXA2, LMX1A, OTX2, EN1, ALDH1A1, BARHL2, BARHL1, PAX6, ALDH2, and WNT1 were evaluated at day 16 in differentiated mDA cells produced using Wnt-boost, Wnt-boost+IWP2 (day 12-day 16) protocols, with or without FGF18 (FIG. 3). The effect of IWP2 on the expression of marker genes in the differentiated cells was determined. […] The present disclosure observed the presence of very high quadrupole positive cells at day 16 (FOXA2/LMX1A, OTX2/EN1). […] Additionally, the expression of ALDH1A1, WNT1, PITX3, DAT, DDC, VMTA2 were increased by the addition of IWP2 and FGF18, whereas IWP2 lowered the expression of Ki67, SMA and SIX1. Immuno-staining images of day 60-differentiated cells were collected showing the expression of FOXA2, TH, and MAP2 (FIG. 14A), and EN1 and TH (FIG. 14B).
# The mRNA expression levels of FOXA2, LMX1A, OTX2, EN1, ALDH1A1, WNT1, BARHL1, PAX6, OTX2, and NKX2-2 were evaluated at day 16 in differentiated mDA cells produced using Wnt-boost, Wnt-boost+IWP2 (day 12-day 16) protocols, with or without FGF18. The present disclosure discovered that IWP2 exposure led to increased ALDH1A1 as well as high endogenous WNT1 expression at day 16 both in Wnt Boost and Wnt Boost+FGF18 conditions. Moreover, IWP2 exposure lowered PAX6 and NKX2-2 expression (FIG. 12).
# The mRNA expression of marker genes in sorted day 28-differentiated CD49^weak/CD184^weak cells and CD49^weak/CD184^strong cells were measured (FIGS. 21 and 22).
# hPSC-derived mDA neurons = experiment: Optimizing WNT inhibition in mDA neuron differentiation (qRT-PCR and ICC); type: cell-based, human
# Description: This example is designed to optimize the temporal window and concentration of the WNT treatment, and to test whether reactivation of non-canonical signaling is required for optimal levels of mDA neuron differentiation or maturation. […] IWP2 inhibits both non-canonical signaling and canonical signaling. The expressions of PITX3, DAT, and VMAT2 are quantified by qRT-PCR and immunocytochemistry (ICC). […] Optimized conditions are validated across hPSC lines (3 hESC and 3 iPSC lines; >3 independent differentiations each) (Zimmer, et al. Proceedings of the National Academy of Sciences of the United States of America 115, […]-[…] (2018)) including male and female lines.
# ALK2, ALK3, and ALK6 = details: cited from earlier work
# [2] = day 16, both Wnt Boost and Wnt Boost+FGF18 conditions, IWP2 day 12-day 16
molecule,measurement,setting,value
"Cc1c[nH]c(-c2cnc(NCCNc3ccc(C#N)cn3)nc2-c2ccc(Cl)cc2Cl)n1 [CHIR99021, 6-(2-(4-(2,4-dichlorophenyl)-5-(4-methyl-1H-imidazol-2-yl)pyrimidin-2-ylamino)ethylamino)nicotinonitrile]",IC50 values against rodent GSK3β homologs,rodent GSK3β homologs,nanomolar
Cc1ccc2nc(NC(=O)CSc3nc4c(c(=O)n3-c3ccccc3)SCC4)sc2c1 [IWP2],"expression of Ki67, SMA and SIX1","[1]; Wnt-boost protocol, IWP2 day 12 to day 16",lowered
same,expression of ALDH1A1,"[1]; continued exposure until day 30, day 30-differentiated cells",further induced
same,PAX6 and NKX2-2 expression,"[1]; day 16, IWP2 day 12-day 16",lowered
same,ALDH1A1 expression,[1]; [2],increased
same,endogenous WNT1 expression,[1]; [2],high
same,expression of ALDH1A1,"[1]; exposure from day 12 to day 25, sorted day 28-differentiated cells, confirmed by immunofluorescent staining",further induced
same,effect on the expression of EN1 or the emergence of contaminating markers (SIX1 and SMA),hPSC-derived mDA neurons,does not negatively affect
"c1ccc2c(-c3cnn4cc(-c5ccc(N6CCNCC6)cc5)cnc34)ccnc2c1 [LDN193189, 4-(6-(4-(piperazin-1-yl)phenyl)pyrazolo[1,5-a]pyrimidin-3-yl)quinoline]","inhibitor of ALK2, ALK3, and ALK6","ALK2, ALK3, and ALK6",highly potent
Oc1nc(-c2ccc(C(F)(F)F)cc2)nc2c1CSCC2 [XAV939],inhibition of canonical signaling alone: results comparable to the IWP2 treatment,hPSC-derived mDA neurons; preliminary data (not shown),might not be sufficient
B1,expression of EN1,"[1]; Wnt-boost protocol, FGF18 day 12 to day 16",high expression

# Source: US20230143486A1, “METHODS OF GENERATING MIDBRAIN DOPAMINE NEURONS, MIDBRAIN NEURONS AND USES THEREOF” (MEMORIAL SLOAN-KETTERING CANCER CENTER, priority 2020, published 2023)
